pIC50: −log10 of the molar value. Like-named read-outs stand apart in the source and are kept apart here.
Molecular target: SARS-CoV-2 Papain-Like Protease (PLpro) (Severe acute respiratory syndrome coronavirus 2 (2019-nCoV) (SARS-CoV-2), UniProt P0DTD1)
Assay: biochemical
Conditions: read-out: PLpro IC50
[1] = PLpro enzymatic fluorescence assay, class symbols
[2] = SARS-CoV-2 PLpro enzymatic fluorescence assay

| Compound | pIC50 [1] | pIC50 [2] |
| --- | --- | --- |
| Cc1ccc(OC[C@@H]2CCN2)cc1C(=O)NC1(c2cc(-c3cncc(N4CCOCC4)c3)cc3ncccc23)CC1 [Compound 689, (S)-5-(Azetidin-2-ylmethoxy)-2-methyl-N-(1-(7-(5-morpholinopyridin-3-yl)quinolin-5-yl)cyclopropyl)benzamide] | > 7.00 | – |
| Cc1cccc(/C=C/c2cc(C3(NC(=O)c4cc(OC[C@@H]5CCN5C)ccc4C)CC3)c3cccnc3c2)c1 [Compound 690, (S,E)-2-Methyl-5-((1-methylazetidin-2-yl)methoxy)-N-(1-(7-(3-methylstyryl)quinolin-5-yl)cyclopropyl)benzamide] | > 7.00 | – |
| Cc1nnc(-c2cc(C3(NC(=O)c4cc(OC[C@@H]5CCN5C)ccc4C)CC3)c3cccnc3c2)s1 [Compound 691, (S)-2-Methyl-N-(1-(7-(5-methyl-1,3,4-thiadiazol-2-yl)quinolin-5-yl)cyclopropyl)-5-((1-methylazetidin-2-yl)methoxy)benzamide] | > 7.00 | – |
| Cc1nnc(-c2cc(C3(NC(=O)c4cc(OC[C@@H]5CCN5C)ccc4C)CC3)c3cccnc3c2)o1 [Compound 693, (S)-2-Methyl-N-(1-(7-(5-methyl-1,3,4-oxadiazol-2-yl)quinolin-5-yl)cyclopropyl)-5-((1-methylazetidin-2-yl)methoxy)benzamide] | > 7.00 | – |
| Cc1ccc(OC[C@@H]2CCN2)cc1C(=O)NC1(c2cc(-c3ncco3)cc3ncccc23)CC1 [Compound 694, (S)-5-(Azetidin-2-ylmethoxy)-2-methyl-N-(1-(7-(oxazol-2-yl)quinolin-5-yl)cyclopropyl)benzamide] | > 7.00 | – |
| Cc1ccc(OC[C@@H]2CCN2)cc1C(=O)NC1(c2cc(-c3cc4ccccc4s3)cc3ncccc23)CC1 [Compound 695, (S)-5-(Azetidin-2-ylmethoxy)-N-(1-(7-(benzo[b]thiophen-2-yl)quinolin-5-yl)cyclopropyl)-2-methylbenzamide] | > 7.00 | – |
| CC#Cc1cc(C2(NC(=O)c3cc(OC[C@@H]4CCN4)ccc3C)CC2)c2cccnc2c1 [Compound 696, (S)-5-(Azetidin-2-ylmethoxy)-2-methyl-N-(1-(7-(prop-1-yn-1-yl)quinolin-5-yl)cyclopropyl)benzamide] | > 7.00 | – |
| C#Cc1cc(C2(NC(=O)c3cc(OC[C@@H]4CCN4)ccc3C)CC2)c2cccnc2c1 [Compound 697, (S)-5-(Azetidin-2-ylmethoxy)-N-(1-(7-ethynylquinolin-5-yl)cyclopropyl)-2-methylbenzamide] | > 7.00 | – |
| Cc1ncc(-c2cc(C3(NC(=O)c4cc(OC[C@@H]5CCN5)ccc4C)CC3)c3cccnc3c2)o1 [Compound 698, (S)-5-(Azetidin-2-ylmethoxy)-2-methyl-N-(1-(7-(2-methyloxazol-5-yl)quinolin-5-yl)cyclopropyl)benzamide] | > 7.00 | – |
| Cc1ccc(OC[C@@H]2CCN2C)cc1C(=O)NC1(c2cc(-c3cncc(N4CCOCC4)c3)cc3ncccc23)CC1 [Compound 699, (S)-2-Methyl-5-((1-methylazetidin-2-yl)methoxy)-N-(1-(7-(5-morpholinopyridin-3-yl)quinolin-5-yl)cyclopropyl)benzamide] | > 7.00 | – |
| Cc1ccc(OC[C@@H]2CCN2C)cc1C(=O)NC1(c2cc(-c3ccc4ncnn4c3)cc3ncccc23)CC1 [Compound 700, (S)—N-(1-(7-([1,2,4]Triazolo[1,5-a]pyridin-6-yl)quinolin-5-yl)cyclopropyl)-2-methyl-5-((1-methylazetidin-2-yl)methoxy)benzamide] | > 7.00 | – |
| Cc1ccc(OC[C@@H]2CCN2C)cc1C(=O)NC1(c2cc(-c3cnc(N4CCCCC4)nc3)cc3ncccc23)CC1 [Compound 701, (S)-2-Methyl-5-((1-methylazetidin-2-yl)methoxy)-N-(1-(7-(2-(piperidin-1-yl)pyrimidin-5-yl)quinolin-5-yl)cyclopropyl)benzamide] | > 7.00 | – |
| Cc1ccc(OC[C@@H]2CCN2C)cc1C(=O)NC1(c2cc(-c3ccc4nccn4c3)cc3ncccc23)CC1 [Compound 702, (S)—N-(1-(7-(Imidazo[1,2-a]pyridin-6-yl)quinolin-5-yl)cyclopropyl)-2-methyl-5-((1-methylazetidin-2-yl)methoxy)benzamide] | > 7.00 | – |
| Cc1cccc(/C=C/c2cc(C3(NC(=O)c4cc(OC[C@@H]5CCN5)ccc4C)CC3)c3cccnc3c2)c1 [Compound 704, (S,E)-5-(Azetidin-2-ylmethoxy)-2-methyl-N-(1-(7-(3-methylstyryl)quinolin-5-yl)cyclopropyl)benzamide] | > 7.00 | – |
| Cc1ccc(OC[C@@H]2CCN2)cc1C(=O)NC1(c2cc(-c3nc4ccccc4o3)cc3ncccc23)CC1 [Compound 711, (S)-5-(Azetidin-2-ylmethoxy)-N-(1-(7-(benzo[d]oxazol-2-yl)quinolin-5-yl)cyclopropyl)-2-methylbenzamide] | > 7.00 | – |
| C=Cc1cc(C2(NC(=O)c3cc(OC[C@@H]4CCCN4)ccc3C)CC2)c2cccnc2c1 [Compound 713, (S)-2-Methyl-5-(pyrrolidin-2-ylmethoxy)-N-(1-(7-vinylquinolin-5-yl)cyclopropyl)benzamide] | – | > 7.00 |
| Cc1ccc(OC[C@@H]2CCN2)cc1C(=O)NC1(c2cc(-c3cnoc3)cc3ncccc23)CC1 [Compound 714, (S)-5-(Azetidin-2-ylmethoxy)-N-(1-(7-(isoxazol-4-yl)quinolin-5-yl)cyclopropyl)-2-methylbenzamide] | > 7.00 | – |

| Compound | pIC50 [1] | pIC50 [2] |
| --- | --- | --- |
| C=C(C)c1cc(C2(NC(=O)c3cc(OC[C@@H]4CCCN4)ccc3C)CC2)c2cccnc2c1 [Compound 715, (S)-2-Methyl-N-(1-(7-(prop-1-en-2-yl)quinolin-5-yl)cyclopropyl)-5-(pyrrolidin-2-ylmethoxy)benzamide] | > 7.00 | – |
| Cc1ncc(-c2cc(C3(NC(=O)c4cc(OC[C@@H]5CCN5C)ccc4C)CC3)c3cccnc3c2)o1 [Compound 716, (S)-2-Methyl-5-((1-methylazetidin-2-yl)methoxy)-N-(1-(7-(2-methyloxazol-5-yl)quinolin-5-yl)cyclopropyl)benzamide] | > 7.00 | – |
| C=Cc1cc(C2(NC(=O)c3cc(OC[C@@H]4CCCN4C)ccc3C)CC2)c2cccnc2c1 [Compound 717, (S)-2-Methyl-5-((1-methylpyrrolidin-2-yl)methoxy)-N-(1-(7-vinylquinolin-5-yl)cyclopropyl)benzamide] | > 7.00 | – |
| Cc1ccc(OC[C@@H]2CCN2C)cc1C(=O)NC1(c2cc(-c3nc4ccccc4o3)cc3ncccc23)CC1 [Compound 718, (S)—N-(1-(7-(Benzo[d]oxazol-2-yl)quinolin-5-yl)cyclopropyl)-2-methyl-5-((1-methylazetidin-2-yl)methoxy)benzamide] | > 7.00 | – |
| C=C(C)c1cc(C2(NC(=O)c3cc(OC[C@@H]4CCCN4C)ccc3C)CC2)c2cccnc2c1 [Compound 719, (S)-2-Methyl-5-((1-methylpyrrolidin-2-yl)methoxy)-N-(1-(7-(prop-1-en-2-yl)quinolin-5-yl)cyclopropyl)benzamide] | > 7.00 | – |
| CC#Cc1cc(C2(NC(=O)c3cc(OC[C@@H]4CCN4C)ccc3C)CC2)c2cccnc2c1 [Compound 721, (S)-2-Methyl-5-((1-methylazetidin-2-yl)methoxy)-N-(1-(7-(prop-1-yn-1-yl)quinolin-5-yl)cyclopropyl)benzamide] | > 7.00 | – |
| Cc1ccc(OC[C@@H]2CCN2)cc1C(=O)NC1(c2cc(N3CCC3)cc3ncccc23)CC1 [Compound 722, (S)—N-(1-(7-(Azetidin-1-yl)quinolin-5-yl)cyclopropyl)-5-(azetidin-2-ylmethoxy)-2-methylbenzamide] | > 7.00 | – |
| Cc1ccc(OC[C@@H]2CCN2C)cc1C(=O)NC1(c2cc(N3CCC3)cc3ncccc23)CC1 [Compound 723, (S)—N-(1-(7-(Azetidin-1-yl)quinolin-5-yl)cyclopropyl)-2-methyl-5-((1-methylazetidin-2-yl)methoxy)benzamide] | > 7.00 | – |
| C=Cc1cc(C2(NC(=O)c3cc(OC[C@@H]4CCN4C)c(N)cc3C)CC2)c2cccnc2c1 [Compound 726, (S)-4-Amino-2-methyl-5-((1-methylazetidin-2-yl)methoxy)-N-(1-(7-vinylquinolin-5-yl)cyclopropyl)benzamide] | – | > 7.00 |
| Cc1ccc(OC[C@@H]2CCN2C)cc1C(=O)NC1(c2cc(N)cc3ncccc23)CC1 [Compound 729, (S)-N-(1-(7-Aminoquinolin-5-yl)cyclopropyl)-2-methyl-5-((1-methylazetidin-2-yl)methoxy)benzamide] | – | > 7.00 |
| [2H]C([2H])([2H])N1CC[C@H]1COc1ccc(C)c(C(=O)NC2(c3cc(OC)cc4ncccc34)CC2)c1 [Compound 732, (S)-N-(1-(7-Methoxyquinolin-5-yl)cyclopropyl)-2-methyl-5-((1-(methyl-d3)azetidin-2-yl)methoxy)benzamide] | > 7.00 | – |
| Cc1ccc(OC[C@@H]2CCN2)cc1C(=O)NC1(c2cc(-c3ncn4ccccc34)cc3ncccc23)CC1 [Compound 733, (S)-5-(Azetidin-2-ylmethoxy)-N-(1-(7-(imidazo[1,5-a]pyridin-1-yl)quinolin-5-yl)cyclopropyl)-2-methylbenzamide] | > 7.00 | – |
| C=C(C)c1cc(C2(NC(=O)c3cc(OC[C@H](C)N)ccc3C)CC2)c2cccnc2c1 [Compound 734, (S)-5-(2-Aminopropoxy)-2-methyl-N-(1-(7-(prop-1-en-2-yl)quinolin-5-yl)cyclopropyl)benzamide] | > 7.00 | – |
| C=Cc1cc(C2(NC(=O)c3cc(OC[C@H](C)N)ccc3C)CC2)c2cccnc2c1 [Compound 735, (S)-5-(2-Aminopropoxy)-2-methyl-N-(1-(7-vinylquinolin-5-yl)cyclopropyl)benzamide] | > 7.00 | – |
| Cc1ccc(OC[C@@H]2CCN2C)cc1C(=O)NC1(c2cc(-c3ncn4ccccc34)cc3ncccc23)CC1 [Compound 736, (S)—N-(1-(7-(Imidazo[1,5-a]pyridin-1-yl)quinolin-5-yl)cyclopropyl)-2-methyl-5-((1-methylazetidin-2-yl)methoxy)benzamide] | > 7.00 | – |
| CNc1cc(C)c(C(=O)NC2(c3cc(OC)cc4ncccc34)CC2)cc1OC[C@@H]1CCN1C [Compound 737, (S)-N-(1-(7-Methoxyquinolin-5-yl)cyclopropyl)-2-methyl-4-(methylamino)-5-((1-methylazetidin-2-yl)methoxy)benzamide] | > 7.00 | – |
